Reference: US20250188040A1, “PHARMACEUTICAL COMPOSITIONS COMPRISING WRN HELICASE INHIBITORS” (Vividion Therapeutics, Inc., priority 2022, published 2025)
Like-named read-outs stand apart in the source and are kept apart here.

Experiments:
SW480 cells = assay: Cell growth assay (CellTiter-Glo 2.0), SW480 MSS cell line; conditions: Homo sapiens, SW480, 120 h, read-out: Cell Growth Inhibition GI50 SW480
[1] = biological target: hWRN(519-1227)_C-H3CV-GFP-10His (Homo sapiens, UniProt Q14191); assay: Helicase Assay for WRN Inhibition (ATP-dependent, fluorescence based)
HCT 116 cells = assay: Cell growth assay (CellTiter-Glo 2.0), HCT 116 MSI-H cell line; conditions: Homo sapiens, HCT-116, 120 h, read-out: Cell Growth Inhibition GI50 HCT-116
WRN C727 [2] = biological target: T1, WRN C727 (Homo sapiens, UniProt Q14191); assay: Target engagement, in vitro (lysate), OCI-AML2; assay type: binding; conditions: read-out: OCI-AML2 WRN C727 TE50 in vitro (lysate)
T1 construct: endogenous in cells; host or cells: OCI-AML2
How it was run: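 Percent engagement of WRN C727 is expressed against DMSO-treated samples, measured by PRM mass spectrometry of streptavidin-enriched, probe-tagged tryptic peptides. Compound dose responses preceded probe labelling of solvent-exposed cysteines, in either living OCI-AML2 cells or their lysates.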

WRN C727 [3] = biological target: T1, WRN C727; assay: Target engagement, in situ (cell), OCI-AML2; assay type: cell-based; conditions: OCI-AML2 cells, read-out: OCI-AML2 WRN C727 TE50 in situ (cell)
Procedure: Cells or cell lysates were treated with a dose response of compound followed by probe treatment, which labels solvent exposed cysteines. Proteins were enzymatically digested with trypsin and probe-labelled peptides were enriched with streptavidin. Isolated peptides were then separated using reversed-phase liquid chromatography on a C18 column (Dionex Ultimated 3000 nano-LC, Thermo). Peptides were analyzed by parallel reaction monitoring mass spectrometry (Exploris 120, Thermo).
Target engagement (%) is calculated relative to DMSO treated control samples.

[4] = WRN Helicase IC50, 30 min preincubation with ATP, 30 min reaction

Sequence of hWRN(519-1227)_C-H3CV-GFP-10His (Q14191 519-1227): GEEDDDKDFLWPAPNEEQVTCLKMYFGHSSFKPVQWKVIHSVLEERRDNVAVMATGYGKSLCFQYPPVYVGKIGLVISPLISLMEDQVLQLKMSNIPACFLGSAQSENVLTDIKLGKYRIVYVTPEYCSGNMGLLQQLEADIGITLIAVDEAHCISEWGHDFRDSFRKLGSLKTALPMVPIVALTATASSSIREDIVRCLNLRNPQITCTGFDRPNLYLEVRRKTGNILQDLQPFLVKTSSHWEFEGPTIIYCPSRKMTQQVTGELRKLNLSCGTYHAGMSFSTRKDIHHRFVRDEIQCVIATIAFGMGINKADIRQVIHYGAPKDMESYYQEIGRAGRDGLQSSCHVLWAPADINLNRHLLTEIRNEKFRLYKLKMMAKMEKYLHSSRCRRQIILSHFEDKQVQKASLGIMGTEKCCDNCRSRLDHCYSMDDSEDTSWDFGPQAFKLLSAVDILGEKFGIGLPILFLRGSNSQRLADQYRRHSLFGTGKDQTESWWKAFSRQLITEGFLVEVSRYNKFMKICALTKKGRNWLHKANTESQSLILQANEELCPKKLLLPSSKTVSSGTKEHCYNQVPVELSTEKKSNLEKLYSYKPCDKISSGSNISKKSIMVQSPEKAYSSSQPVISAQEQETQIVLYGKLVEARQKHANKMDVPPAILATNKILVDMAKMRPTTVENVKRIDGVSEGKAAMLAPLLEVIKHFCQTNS
T1 sequence (Q14191 whole entry): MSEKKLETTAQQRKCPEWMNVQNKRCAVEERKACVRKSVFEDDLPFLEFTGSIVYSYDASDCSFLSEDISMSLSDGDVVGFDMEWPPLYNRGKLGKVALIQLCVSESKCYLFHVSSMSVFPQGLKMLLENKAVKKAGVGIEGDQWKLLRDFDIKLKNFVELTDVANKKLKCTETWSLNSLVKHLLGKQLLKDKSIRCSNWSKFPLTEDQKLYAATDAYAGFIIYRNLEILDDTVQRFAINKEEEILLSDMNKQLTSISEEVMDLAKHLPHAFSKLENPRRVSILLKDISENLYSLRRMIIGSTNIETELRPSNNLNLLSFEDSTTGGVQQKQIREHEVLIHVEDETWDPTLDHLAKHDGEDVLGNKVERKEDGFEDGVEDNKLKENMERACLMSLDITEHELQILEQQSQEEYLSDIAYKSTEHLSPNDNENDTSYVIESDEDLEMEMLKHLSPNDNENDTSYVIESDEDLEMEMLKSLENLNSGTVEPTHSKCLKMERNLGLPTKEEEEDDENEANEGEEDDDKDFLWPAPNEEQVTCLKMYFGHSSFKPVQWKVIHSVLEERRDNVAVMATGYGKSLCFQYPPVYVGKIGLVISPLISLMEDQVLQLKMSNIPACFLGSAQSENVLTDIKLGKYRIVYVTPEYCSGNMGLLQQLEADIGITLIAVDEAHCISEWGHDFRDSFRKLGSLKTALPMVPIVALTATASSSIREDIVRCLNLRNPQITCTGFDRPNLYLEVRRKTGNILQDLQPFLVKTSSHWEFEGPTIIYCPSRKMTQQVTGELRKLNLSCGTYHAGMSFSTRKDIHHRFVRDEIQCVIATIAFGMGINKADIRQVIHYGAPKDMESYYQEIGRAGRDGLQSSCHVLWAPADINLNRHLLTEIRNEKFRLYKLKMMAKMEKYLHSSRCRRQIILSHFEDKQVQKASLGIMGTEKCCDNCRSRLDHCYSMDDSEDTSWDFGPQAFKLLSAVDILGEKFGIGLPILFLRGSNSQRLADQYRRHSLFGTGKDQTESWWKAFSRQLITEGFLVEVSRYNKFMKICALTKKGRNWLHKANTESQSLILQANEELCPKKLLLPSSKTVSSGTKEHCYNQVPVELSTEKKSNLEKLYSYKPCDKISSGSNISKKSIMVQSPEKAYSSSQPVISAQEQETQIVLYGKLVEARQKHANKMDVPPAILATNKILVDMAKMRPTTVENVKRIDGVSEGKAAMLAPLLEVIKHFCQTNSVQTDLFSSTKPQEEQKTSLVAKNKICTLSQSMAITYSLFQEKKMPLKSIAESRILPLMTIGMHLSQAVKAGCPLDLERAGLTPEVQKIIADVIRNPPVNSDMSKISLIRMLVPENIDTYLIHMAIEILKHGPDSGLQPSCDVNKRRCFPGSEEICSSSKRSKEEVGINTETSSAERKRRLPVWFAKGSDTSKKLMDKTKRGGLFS

Structure (SMILES)	GI50 (SW480 cells) [nM]	IC50 [1, 4] [nM]	GI50 (HCT 116 cells) [nM]	IC50 (WRN C727 [2]) [nM]	IC50 (WRN C727 [3]) [nM]	IC50 [1] [nM]
COCC(/C=C/S(C)(=O)=O)NC(=O)c1cnc(C(F)(F)C2CC2)nc1Oc1ccccc1 (stereo in doubt) [Example 226, (S,E)-2-(cyclopropyldifluoromethyl)-N-(1-methoxy-4-(methylsulfonyl)but-3-en-2-yl)-4-phenoxypyrimidine-5-carboxamide]	27900	92.9	23	116	16	–
CC[C@@H](/C=C/S(C)(=O)=O)NC(=O)c1cnc(C2CCCC2)nc1Oc1ccccc1 [Example 6, (S,E)-2-cyclopentyl-N-(1-(methylsulfonyl)pent-1-en-3-yl)-4-phenoxypyrimidine-5-carboxamide]	11800	439	214	5000	200	–
CCc1ncc(C(=O)NC/C=C/S(C)(=O)=O)c(Oc2ccccc2)n1 [Example 12, (E)-2-ethyl-N-(3-(methylsulfonyl)allyl)-4-phenoxypyrimidine-5-carboxamide]	> 10000	14000	8900	> 100000	50000	–
CC(C)c1ncc(C(=O)NC/C=C/S(C)(=O)=O)c(Oc2ccccc2)n1 [Example 14, (E)-2-isopropyl-N-(3-(methylsulfonyl)allyl)-4-phenoxypyrimidine-5-carboxamide]	> 10000	10000	5400	20000	2090	–
CS(=O)(=O)/C=C/CNC(=O)c1cnc(C2CC2)nc1Oc1ccccc1 [Example 17, (E)-2-cyclopropyl-N-(3-(methylsulfonyl)allyl)-4-phenoxypyrimidine-5-carboxamide]	> 10000	7620	6300	80000	5990	–
C[C@@H](/C=C/S(C)(=O)=O)NC(=O)c1cnc(C2CC2)nc1Oc1ccccc1 [Example 18, (S,E)-2-cyclopropyl-N-(4-(methylsulfonyl)but-3-en-2-yl)-4-phenoxypyrimidine-5-carboxamide]	> 10000	1100	380	6840	1530	–
C[C@@H](/C=C/S(C)(=O)=O)NC(=O)c1cnc(CC2CC2)nc1Oc1ccccc1 [Example 35, (S,E)-2-(cyclopropylmethyl)-N-(4-(methylsulfonyl)but-3-en-2-yl)-4-phenoxypyrimidine-5-carboxamide]	18100	1010	171	5000	290	–
C[C@@H](/C=C/S(C)(=O)=O)NC(=O)c1cnc(C2CCC2)nc1Oc1ccccc1 [Example 44, (S,E)-2-cyclobutyl-N-(4-(methylsulfonyl)but-3-en-2-yl)-4-phenoxypyrimidine-5-carboxamide]	> 10000	910	270	1180	260	–
CC(C)(C)c1ncc(C(=O)NC/C=C/S(C)(=O)=O)c(Oc2ccccc2)n1 [Example 56, (E)-2-(tert-butyl)-N-(3-(methylsulfonyl)allyl)-4-phenoxypyrimidine-5-carboxamide]	10600	842	378	4900	430	–
CC(C)(C)c1ncc(C(=O)N[C@H](/C=C/S(C)(=O)=O)C2CC2)c(Oc2ccccc2)n1 [Example 58, (S,E)-2-(tert-butyl)-N-(1-cyclopropyl-3-(methylsulfonyl)allyl)-4-phenoxypyrimidine-5-carboxamide]	8730	57.7	23.5	448	16	–
C[C@@H](/C=C/S(C)(=O)=O)NC(=O)c1cnc(C2CCCCC2)nc1Oc1ccccc1 [Example 77, (S,E)-2-cyclohexyl-N-(4-(methylsulfonyl)but-3-en-2-yl)-4-phenoxypyrimidine-5-carboxamide]	> 5000	1500	430	26000	1140	–
CS(=O)(=O)/C=C/[C@@H](NC(=O)c1cnc(C(F)(F)C(F)(F)F)nc1Oc1ccccc1)C1CC1 [Example 84, (S,E)-N-(1-cyclopropyl-3-(methylsulfonyl)allyl)-2-(perfluoroethyl)-4-phenoxypyrimidine-5-carboxamide]	8780	80	51.1	200	16	–
CS(=O)(=O)/C=C/[C@@H](NC(=O)c1cnc(C2(F)CC2)nc1Oc1ccccc1)C1CC1 [Example 100, (S,E)-N-(1-cyclopropyl-3-(methylsulfonyl)allyl)-2-(1-fluorocyclopropyl)-4-phenoxypyrimidine-5-carboxamide]	24400	174	66	853	150	–
CS(=O)(=O)/C=C/[C@@H](NC(=O)c1cnc(C2(C(F)(F)F)CC2)nc1Oc1ccccc1)C1CC1 [Example 102, (S,E)-N-(1-cyclopropyl-3-(methylsulfonyl)allyl)-4-phenoxy-2-(1-(trifluoromethyl)cyclopropyl)pyrimidine-5-carboxamide]	4140	130	81.8	530	160	–
CCc1cccc(Oc2nc(C3CCCC3)ncc2C(=O)N[C@@H](C)/C=C/S(C)(=O)=O)c1 [Example 108, (S,E)-2-cyclopentyl-4-(3-ethylphenoxy)-N-(4-(methylsulfonyl)but-3-en-2-yl)pyrimidine-5-carboxamide]	–	87000	–	> 100000	50000	–
C[C@@H](/C=C/S(C)(=O)=O)NC(=O)c1cnc(C2CCCC2)nc1Oc1cc(F)cc(F)c1 [Example 116, (S,E)-2-cyclopentyl-4-(3,5-difluorophenoxy)-N-(4-(methylsulfonyl)but-3-en-2-yl)pyrimidine-5-carboxamide]	> 10000	2200	2500	22300	1500	–
C[C@@H](/C=C/S(C)(=O)=O)NC(=O)c1cnc(C2CCCC2)nc1Oc1cc(F)cc(Cl)c1 [Example 122, (S,E)-4-(3-chloro-5-fluorophenoxy)-2-cyclopentyl-N-(4-(methylsulfonyl)but-3-en-2-yl)pyrimidine-5-carboxamide]	–	22000	–	> 100000	8070	–
C[C@@H](/C=C/S(C)(=O)=O)NC(=O)c1cnc(C2CCCC2)nc1Oc1cc(Cl)cc(Cl)c1 [Example 123, (S,E)-2-cyclopentyl-4-(3,5-dichlorophenoxy)-N-(4-(methylsulfonyl)but-3-en-2-yl)pyrimidine-5-carboxamide]	–	29000	–	> 100000	20000	–
C[C@@H](/C=C/S(C)(=O)=O)NC(=O)c1cnc(C2CCCC2)nc1Oc1cccc2ccccc12 [Example 139, (S,E)-2-cyclopentyl-N-(4-(methylsulfonyl)but-3-en-2-yl)-4-(naphthalen-1-yloxy)pyrimidine-5-carboxamide]	–	192000	–	> 100000	> 100000	–
C[C@@H](/C=C/S(C)(=O)=O)NC(=O)c1cnc(C2CC2)nc1OC1CCCC1 [Example 144, (S,E)-4-(cyclopentyloxy)-2-cyclopropyl-N-(4-(methylsulfonyl)but-3-en-2-yl)pyrimidine-5-carboxamide]	> 16000	1890	693	20000	800	–
C[C@@H](/C=C/S(C)(=O)=O)NC(=O)c1cnc(C(C)(C)C)nc1OC1CCCC1 [Example 153, (S,E)-2-(tert-butyl)-4-(cyclopentyloxy)-N-(4-(methylsulfonyl)but-3-en-2-yl)pyrimidine-5-carboxamide]	> 10000	500	165	1880	160	–
CS(=O)(=O)/C=C/CNC(=O)c1cnc(N2CCCC2)nc1Oc1ccccc1 [Example 167, (E)-N-(3-(methylsulfonyl)allyl)-4-phenoxy-2-(pyrrolidin-1-yl)pyrimidine-5-carboxamide]	–	15600	–	> 100000	7080	–
CS(=O)(=O)C=C1CN(C(=O)c2cnc(C3CC3)nc2Oc2ccccc2)C1 [Example 188, (2-cyclopropyl-4-phenoxypyrimidin-5-yl)(3-((methylsulfonyl)methylene)azetidin-1-yl)methanone]	> 15200	–	391	–	490	1100
C[C@@H](/C=C/S(C)(=O)=O)NC(=O)c1cnc(C(C)(C)C)cc1Oc1ccccc1 [Example 253, (S,E)-6-(tert-butyl)-N-(4-(methylsulfonyl)but-3-en-2-yl)-4-phenoxynicotinamide]	> 10000	940	240	–	200	–
CCOc1cc(C2CCCC2)ccc1C(=O)NC/C=C/S(C)(=O)=O [Example 280, (E)-4-cyclopentyl-2-ethoxy-N-(3-(methylsulfonyl)allyl)benzamide]	–	62000	–	8490	21300	–
